Experimental data published in publication PMC8634379, “From the Design to the In Vivo Evaluation of Benzohomoadamantane-Derived Soluble Epoxide Hydrolase Inhibitors for the Treatment of Acute Pancreatitis” (Journal of Medicinal Chemistry, 2021).

Experiments:
human sEH (hsEH) = molecular target: T1, human sEH (hsEH) (Homo sapiens, UniProt P34913); experiment: sEH inhibition, fluorescent-based assay (CMNPC substrate); format: biochemical; conditions: for fold difference (decrease) in hsEH potency: 17 vs 16 (oxygen for methylene), 18 vs 17 (hydrogen for methyl)
T1 sequence (P34913 1-555): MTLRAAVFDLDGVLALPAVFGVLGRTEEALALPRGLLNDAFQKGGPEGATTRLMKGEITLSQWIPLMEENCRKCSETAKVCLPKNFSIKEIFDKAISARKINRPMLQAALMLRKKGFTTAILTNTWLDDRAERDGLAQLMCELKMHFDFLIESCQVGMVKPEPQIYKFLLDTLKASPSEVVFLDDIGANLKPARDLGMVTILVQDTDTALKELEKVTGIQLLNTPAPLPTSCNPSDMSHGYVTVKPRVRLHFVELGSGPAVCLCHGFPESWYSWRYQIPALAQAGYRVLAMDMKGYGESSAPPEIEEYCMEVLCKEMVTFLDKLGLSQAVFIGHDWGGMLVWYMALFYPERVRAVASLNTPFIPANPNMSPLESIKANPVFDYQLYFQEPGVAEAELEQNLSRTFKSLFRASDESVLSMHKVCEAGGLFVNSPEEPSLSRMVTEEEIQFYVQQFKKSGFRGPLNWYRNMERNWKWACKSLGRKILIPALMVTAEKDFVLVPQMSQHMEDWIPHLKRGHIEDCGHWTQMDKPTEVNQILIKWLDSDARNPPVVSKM
Procedure: The IC50 values reported herein were determined using a fluorescent-based assay (CMNPC as substrate).[16] The fluorescent assay was used with purified recombinant human, mouse, or rat sEH proteins. The enzymes were incubated at 30 °C with the inhibitors ([I]final = 0.4–100,000 nM) for 5 min in 100 mM sodium phosphate buffer (200 μL, pH 7.4) containing 0.1 mg/mL of BSA and 1% of DMSO. The substrate (CMNPC) was then added ([S]final = 5 μM). […] Results were obtained by regression analysis from a linear region of the curve.

Microsomal stability [1] = format: in vitro ADME, human; conditions: after 60 min incubation, NADP, 37 °C
Procedure: (§1) The human, rat, and mice recombinant microsomes employed were purchased from Tebu–Xenotech. […] Samples (75 μL) were taken from each well at 0, 10, 20, 40, and 60 min and transferred to a plate containing 4 °C 75 μL of acetonitrile and 30 μL of 0.5% formic acid in water were added for improving the chromatographic conditions. The plate was centrifuged ([…], 30 min) and supernatants were taken and analyzed by an ultraperformance liquid chromatograph–tandem mass spectrometer (Xevo-TQD, Waters) by employing a BEH C18 column and an isocratic gradient of 0.1% formic acid in water: 0.1% formic acid acetonitrile (60:40). The metabolic stability of the compounds was calculated from the logarithm of the remaining compounds at each of the time points studied.

Microsomal stability [2] = format: in vitro ADME, mice; conditions: after 60 min incubation, NADP, 37 °C
Procedure: as §1

Microsomal stability [3] = conditions: after 60 min incubation, NADP, 37 °C
Procedure: as §1

[4] = purified recombinant enzyme, average of three replicates

SMILES | IC50 (human sEH (hsEH); [4]) [nM] | microsomal stability, percentage of remaining compound (human) (Microsomal stability [1]) [%] | microsomal stability, percentage of remaining compound (mice) (Microsomal stability [2]) [%] | fold difference (decrease) in hsEH potency (human sEH (hsEH)) [fold] | IC50 (human sEH (hsEH); value given in the text) [nM] | microsomal stability, percentage of remaining compound (rat) (Microsomal stability [3])
Cc1ccc(OC(=O)NC23CC4CC(C)(CC(C2)c2ccccc24)C3)cc1 [Compound 11, p-Tolyl (9-Methyl-5,6,8,9,10,11-hexahydro-7H-5,9:7,11-dimethanobenzo[9]annulen-7-yl)carbamate] | > 10000 | – | – | – | 12700 | –
CC12CC3CC(NC(=O)N[C@H]4CC[C@H](Oc5ccc(C(=O)O)cc5)CC4)(CC(C1)c1ccccc13)O2 [Compound 21, 4-[((1r,4r)-4-(3-(5-Methyl-1,5,6,7-tetrahydro-1,5:3,7-Dimethanobenzo[e]oxonin-3(2H)-yl)ureido)cyclohexyl)oxy]benzoic Acid] | 28 | 90 | 83 | – | – | –
CC12CC3CC(NC(=S)Nc4ccc(C(F)(F)F)cc4)(CC(C1)c1ccccc13)C2 [Compound 9, 1-(9-Methyl-5,6,8,9,10,11-hexahydro-7H-5,9:7,11-dimethanobenzo[9]annulen-7-yl)-3-(4-(trifluoromethyl)phenyl)thiourea] | 138 | – | – | – | – | –
CC(=O)N1CCC(NC(=O)NC23CC4CC(CC(C2)c2ccccc24)O3)CC1 [Compound 18, 1-(1-Acetylpiperidin-4-yl)-3-(1,5,6,7-tetrahydro-1,5:3,7-dimethanobenzo[e]oxonin-3(2H)-yl)urea] | > 10000 | – | – | > 10 | – | –
CC(=O)N1CCC(NC(=O)NC23CC4CC(C)(CC(C2)c2ccccc24)C3)CC1 [Compound 16, 1-(1-Acetylpiperidin-4-yl)-3-(9-methyl-5,6,8,9,10,11-hexahydro-7H-5,9:7,11-dimethanobenzo[9]annulen-7-yl)urea] | – | – | – | – | – | less than 1%

Further lines, with some results ahead:

IC50 (human sEH (hsEH); [4]) [nM] | microsomal stability, percentage of remaining compound (human) (Microsomal stability [1]) [%] | microsomal stability, percentage of remaining compound (mice) (Microsomal stability [2]) [%] | fold difference (decrease) in hsEH potency (human sEH (hsEH)) [fold] | SMILES | IC50 (human sEH (hsEH); value given in the text) [nM] | microsomal stability, percentage of remaining compound (rat) (Microsomal stability [3])
1 | 7 | 0.2 | – | CC12CC3CC(NC(=O)Nc4ccc(F)c(F)c4F)(CC(C1)c1ccccc13)C2 [Compound 13, 1-(9-Methyl-5,6,8,9,10,11-hexahydro-7H-5,9:7,11-dimethanobenzo[9]annulen-7-yl)-3-(2,3,4-trifluorophenyl)urea] | – | –
941 | – | – | 300 | CC(=O)N1CCC(NC(=O)NC23CC4CC(C)(CC(C2)c2ccccc24)O3)CC1 [Compound 17, 1-(1-Acetylpiperidin-4-yl)-3-(5-methyl-1,5,6,7-tetrahydro-1,5:3,7-dimethanobenzo[e]oxonin-3(2H)-yl)urea] | – | –
20 | 77 | 23 | – | CC12CC3CC(NC(=O)Nc4ccc(F)c(F)c4F)(CC(C1)c1ccccc13)O2 [Compound 14, 1-(5-Methyl-1,5,6,7-hexahydro-1,5:3,7-dimethanobenzo[e]oxonin-3(2H)-yl)-3-(2,3,4-trifluorophenyl)urea] | – | 33%
